Test results: article PMC12705226, “Lotusin A: a novel pyrrole terpenoid hydrid from lotus roots (Nelumbo nucifera Gaertn.)” (RSC Advances, 2025)
Where two headings read alike, the source gives them in different places.

Experiments:
α-glucosidase = α-glucosidase (Saccharomyces cerevisiae, UniProt P38158); experiment: biochemical
Method: The α-glucosidase inhibitory assay was performed using a somewhat modified method of Kurihara et al.[44] For every reaction, […] p-nitrophenyl-α-D-glucopyranoside, 50 mL of 0.1 U mL^−1, α-glucosidase in 0.01 M phosphate buffer (pH 7.0), […] of sample solution (various concentrations of compound 1 with 5, 10, 25, 50 µM) were mixed. The mixture was kept at 37 °C for 30 minutes and added with 0.1 M Na2CO3. Mixture after reaction will be measured at a wavelength of 401 nm. The IC50 values represented the inhibitor concentration that suppressed 50% of enzyme activity. […] All experiments were performed in triplicate. The percentage inhibition was calculated using the following equation: α-glucosidase inhibition (%) = (Ac − At)/Ac × 100, where Ac is the absorbance of control (α-glucosidase, without sample) and At is the absorbance of test samples (α-glucosidase, with sample). The experimental results were processed using the GraphPad Prism 8 software.

RAW264.7 cells = experiment: Determination of NO production in LPS-treated RAW264.7 cells (Griess reagent); format: cell-based; settings: for IC50: Mus musculus
Method: The production of nitric oxide (NO) was quantified by measuring the NO levels in cell culture supernatants using a previously method. In brief, RAW264.7 cells (ATCC, Rockville, MD, USA, 1 × 10^5 cells per well) were treated with 1 µg mL^−1 of LPS for 24 h, with and without the test compounds (1–100 µM). After incubation, the supernatant (100 µL) was mixed with 100 µL of Griess reagent. The viability of the remaining cells was assessed using an MTT-based colorimetric assay as described above.

six bacterial strains = experiment: Antibacterial preliminary screening, text statements on all strains together; format: cell-based; settings: concentration of 10 µM
Method: It is based on combined biological activities of reported pyrrole sesquiterpenes and available screening models in our lab, including those regarding anti-inflammatory activities, antibacterial activities, and inhibition of α-glucosidase. […] To further evaluate the biological potential of compounds 1–6, we examined their antibacterial activities through preliminary screening at a concentration of 10 µM. The assays were conducted against three Gram-positive bacterial strains (Staphylococcus aureus, Bacillus subtilis, and Micrococcus luteus) and three Gram-negative strains (Salmonella typhimurium, Escherichia coli, and Klebsiella pneumoniae). This comparative screening aimed to determine whether any of these compounds could inhibit bacterial growth under identical conditions by conducting further experiments.
The antibacterial activities of compounds 1–6 were evaluated in 96-well plates using a modified broth microdilution method previously reported by our group. The MIC of the isolated compounds was determined against Staphylococcus aureus, Bacillus subtilis, Micrococcus luteus, Salmonella typhimurium, Escherichia coli, and Klebsiella pneumonia. Bacterial strains were cultured on TSB (Tryptic Soy Broth) agar plates and incubated at 37 °C for 24 h. […]

Micrococcus luteus = experiment: MIC measurement (broth microdilution); format: cell-based; settings: Gram-positive; screening at 10.0 µM
Method: (§1) The antibacterial activities of compounds 1–6 were evaluated in 96-well plates using a modified broth microdilution method previously reported by our group. The MIC of the isolated compounds was determined against Staphylococcus aureus, Bacillus subtilis, Micrococcus luteus, Salmonella typhimurium, Escherichia coli, and Klebsiella pneumonia. Bacterial strains were cultured on TSB (Tryptic Soy Broth) agar plates and incubated at 37 °C for 24 h. A single colony was transferred to Muller–Hinton broth (MHB), continuously incubated and harvested after 24 h at 37 °C and centrifuged at 250 rpm. The suspensions were adjusted to 0.5 McFarland standard, diluted to achieve a final concentration of approximately 5 × 10^5 CFU mL^−1 and added to each well. All compounds were dissolved in DMSO and dispensed into 96-well plates at a starting concentration of 10 µM. Kanamycin was used as a positive control.

Staphylococcus aureus = experiment: MIC measurement (broth microdilution); format: cell-based; settings: Gram-positive; screening at 10.0 µM
Method: as §1

Escherichia coli = experiment: MIC measurement (broth microdilution); format: cell-based; settings: Gram-negative; screening at 10.0 µM
Method: as §1

Bacillus subtilis = experiment: MIC measurement (broth microdilution); format: cell-based; settings: Gram-positive; screening at 10.0 µM
Method: as §1

Klebsiella pneumoniae = experiment: MIC measurement (broth microdilution); format: cell-based; settings: Gram-negative; screening at 10.0 µM
Method: as §1

Salmonella typhimurium = experiment: MIC measurement (broth microdilution); format: cell-based; settings: Gram-negative; screening at 10.0 µM
Method: as §1, with “The” for “The antibacterial activities of compounds 1–6 were evaluated in 96-well plates using a modified broth microdilution method previously reported by our group. The”

[1] = RAW264.7, 24 h, read-out: NO production (IC50, µM)

α-glucosidase, sequence (P38158 whole entry): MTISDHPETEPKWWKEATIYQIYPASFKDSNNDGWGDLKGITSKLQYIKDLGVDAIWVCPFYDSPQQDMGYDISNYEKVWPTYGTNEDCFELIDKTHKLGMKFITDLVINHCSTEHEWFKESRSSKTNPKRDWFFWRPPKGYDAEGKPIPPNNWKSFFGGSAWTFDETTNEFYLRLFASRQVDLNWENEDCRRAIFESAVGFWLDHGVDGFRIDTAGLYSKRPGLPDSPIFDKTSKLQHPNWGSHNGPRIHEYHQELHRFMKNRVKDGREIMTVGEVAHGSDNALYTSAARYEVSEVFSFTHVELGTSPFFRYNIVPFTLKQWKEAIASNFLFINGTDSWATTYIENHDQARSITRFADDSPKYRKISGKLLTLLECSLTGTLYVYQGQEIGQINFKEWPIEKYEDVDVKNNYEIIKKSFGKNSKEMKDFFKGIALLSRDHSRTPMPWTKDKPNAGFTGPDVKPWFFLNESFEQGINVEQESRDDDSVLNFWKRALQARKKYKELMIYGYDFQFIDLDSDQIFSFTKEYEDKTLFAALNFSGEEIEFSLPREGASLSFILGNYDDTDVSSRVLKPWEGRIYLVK

CC[C@H](CC[C@@H](C)[C@H]1CC[C@H]2[C@@H]3CCC4=CC(=O)CC[C@]4(C)[C@H]3CC[C@]12C)C(C)C (stereo in doubt) [Compound 3, stigmast-4-en-3-one] was tested. Which IC50 (α-glucosidase) did it give?
Its IC50 is > 50 µM.

How did the IC50 (RAW264.7 cells; RAW264.7 cells, 1 µg mL^−1 LPS, 24 h, read-out: NO production (IC50)) turn out when CC1=C(O)C(=O)C=C2C1=CC=C1[C@@]2(C)CC[C@@]2(C)[C@@H]3C[C@](C)(C(=O)O)CC[C@]3(C)CC[C@]12C [Celastrol, reference compound] was run?
Its IC50 is 1.2 µM.

For CO[C@@H](CC(=O)c1ccc[nH]1)C(N)=O [Compound 1, lotusin A], which IC50 (RAW264.7 cells; [1]) is on record?
Its IC50 is 21.5 ± 0.3 µM.

And the “inhibition of microbial growth” value (six bacterial strains)?
The value was “no inhibition”.

And the IC50 (α-glucosidase; pH 7.0, 37 °C, 30 minutes, read-out: α-Glucosidase (IC50))?
Its IC50 is 18.2 ± 0.17 µM.

For CC(C)CCCC(C)C1CCC2C3CCC4CC(O)CCC4(C)C3CCC12C (centres unmarked) [Compound 2, cholestanol], which IC50 (RAW264.7 cells; [1]) is on record?
Its IC50 is > 100 µM.

What about the “NO production (IC50, µM)” value (RAW264.7 cells; RAW264.7 cells, 1 µg mL^−1 LPS, 24 h) of the same molecule?
Its value is “did not show any activity”.

And the IC50 (α-glucosidase)?
The IC50 was > 50 µM.

Which IC50 (α-glucosidase) does the source give for O=c1c(O)c(-c2ccc(O)c(O)c2)oc2cc(O)cc(O)c12 [Compound 4, quercetin] here?
Its IC50 is > 50 µM.

Which IC50 (α-glucosidase) does the source give for COc1cc(-c2oc3cc(O)cc(O)c3c(=O)c2O)ccc1O [Compound 5, isorhamnetin] here?
The IC50 was > 50 µM.

For O=c1cc(-c2ccc(O)cc2O)oc2cc(O)cc(O)c12 [Compound 6, norartocarpetin], which IC50 (α-glucosidase; pH 7.0, 37 °C, 30 minutes, class symbol, read-out: α-Glucosidase (IC50)) is on record?
Its IC50 is > 50 µM.

What does the source list for NC[C@H]1O[C@H](O[C@H]2[C@H](O)[C@@H](O[C@H]3O[C@H](CO)[C@@H](O)[C@H](N)[C@H]3O)[C@H](N)C[C@@H]2N)[C@H](O)[C@@H](O)[C@@H]1O [Kanamycin]?
MIC (10.0 µM) Micrococcus luteus (Micrococcus luteus): A.; MIC (10.0 µM) Staphylococcus aureus (Staphylococcus aureus): A.; MIC (10.0 µM) Escherichia coli (Escherichia coli): A.; MIC (10.0 µM) Bacillus subtilis (Bacillus subtilis): A.; MIC (10.0 µM) Klebsiella pneumoniae (Klebsiella pneumoniae): A.; MIC (10.0 µM) Salmonella typhimurium (Salmonella typhimurium): A.
